Measurements reported in patent US20230278995A1, “1,3,4-OXADIAZOLE DERIVATIVE COMPOUNDS AS HISTONE DEACETYLASE 6 INHIBITOR, AND THE PHARMACEUTICAL COMPOSITION COMPRISING THE SAME” (CHONG KUN DANG PHARMACEUTICAL CORP., priority 2020, published 2023).

What was measured:
human recombinant HDAC6 = biological target: T1, human recombinant HDAC6 (Homo sapiens, UniProt Q9UBN7); assay: HDAC enzyme activity inhibition assay (HDAC Fluorimetric Drug Discovery Kit), HDAC6; format: biochemical; conditions: for HDAC6 selectivity (fold): HDAC1 vs HDAC6; for IC50: human recombinant HDAC6, same protocol as HDAC1
T1 construct: purchased Calbiochem Inc. 382180
T1 sequence (Q9UBN7 1-1215): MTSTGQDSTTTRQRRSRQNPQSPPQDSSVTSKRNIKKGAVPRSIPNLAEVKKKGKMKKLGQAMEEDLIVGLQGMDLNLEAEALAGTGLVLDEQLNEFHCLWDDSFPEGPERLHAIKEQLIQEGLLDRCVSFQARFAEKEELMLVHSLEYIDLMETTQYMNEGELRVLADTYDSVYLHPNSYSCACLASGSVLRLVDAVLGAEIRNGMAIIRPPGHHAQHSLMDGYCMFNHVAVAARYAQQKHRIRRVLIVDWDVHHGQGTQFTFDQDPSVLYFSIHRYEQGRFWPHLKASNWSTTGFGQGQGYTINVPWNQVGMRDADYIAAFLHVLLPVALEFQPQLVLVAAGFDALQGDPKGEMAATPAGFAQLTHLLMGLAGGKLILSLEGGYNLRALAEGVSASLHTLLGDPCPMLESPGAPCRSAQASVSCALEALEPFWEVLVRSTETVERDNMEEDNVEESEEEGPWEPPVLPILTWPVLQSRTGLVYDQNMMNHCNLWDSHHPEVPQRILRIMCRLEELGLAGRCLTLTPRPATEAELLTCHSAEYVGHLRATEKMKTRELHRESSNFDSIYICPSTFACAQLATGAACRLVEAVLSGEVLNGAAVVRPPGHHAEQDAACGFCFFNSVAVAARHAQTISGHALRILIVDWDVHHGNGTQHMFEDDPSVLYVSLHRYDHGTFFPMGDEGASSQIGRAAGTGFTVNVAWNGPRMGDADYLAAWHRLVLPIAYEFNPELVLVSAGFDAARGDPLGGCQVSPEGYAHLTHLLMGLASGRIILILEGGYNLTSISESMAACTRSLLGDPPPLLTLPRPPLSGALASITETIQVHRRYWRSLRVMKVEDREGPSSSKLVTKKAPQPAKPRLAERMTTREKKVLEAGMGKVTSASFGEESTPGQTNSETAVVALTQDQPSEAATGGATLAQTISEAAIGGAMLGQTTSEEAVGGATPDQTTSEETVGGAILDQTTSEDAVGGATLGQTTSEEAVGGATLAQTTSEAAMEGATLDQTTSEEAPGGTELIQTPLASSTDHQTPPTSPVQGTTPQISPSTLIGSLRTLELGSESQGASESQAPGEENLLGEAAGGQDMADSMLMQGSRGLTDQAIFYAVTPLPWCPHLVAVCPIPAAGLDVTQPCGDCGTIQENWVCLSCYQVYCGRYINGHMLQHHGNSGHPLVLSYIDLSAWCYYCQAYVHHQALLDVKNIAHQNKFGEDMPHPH
Method in brief: (§1)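 Recombinant human HDAC1 or HDAC6 (0.3 μg) reacted with 10 μM Fluor de Lys-SIRT1 substrate at 30 °C for 60 min. Developer added for 30 min, then fluorescence read at Ex 360/Em 460.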

human recombinant HDAC1 = biological target: T2, human recombinant HDAC1 (Homo sapiens, UniProt Q13547); assay: HDAC enzyme activity inhibition assay (HDAC Fluorimetric Drug Discovery Kit), HDAC1; format: biochemical; conditions: human recombinant HDAC1, Fluor de Lys-SIRT1 substrate, 30° C. 60 minutes
T2 construct: purchased Enzo Life Sciences, Inc. BML-SE456
T2 sequence (Q13547 whole entry): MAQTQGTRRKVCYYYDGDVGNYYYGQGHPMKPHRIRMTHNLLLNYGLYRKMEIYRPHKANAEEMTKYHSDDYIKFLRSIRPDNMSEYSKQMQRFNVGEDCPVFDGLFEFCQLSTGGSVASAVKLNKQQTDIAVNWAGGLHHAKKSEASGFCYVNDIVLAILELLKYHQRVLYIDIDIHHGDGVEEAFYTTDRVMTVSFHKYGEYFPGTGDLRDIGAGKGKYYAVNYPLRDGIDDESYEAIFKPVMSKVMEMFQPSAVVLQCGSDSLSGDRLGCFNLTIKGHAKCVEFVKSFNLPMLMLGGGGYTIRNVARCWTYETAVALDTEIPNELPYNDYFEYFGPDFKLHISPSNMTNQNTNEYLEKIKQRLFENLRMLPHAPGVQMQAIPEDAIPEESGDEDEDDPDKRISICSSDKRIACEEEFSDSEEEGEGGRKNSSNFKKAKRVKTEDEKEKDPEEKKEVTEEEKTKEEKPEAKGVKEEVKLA
Method in brief: as §1

SMILES	HDAC6 selectivity (fold) (human recombinant HDAC6)	IC50 (human recombinant HDAC6) [nM]	IC50 (human recombinant HDAC1) [nM]
CCCN1CCC(N2CC(F)(C(=O)N(Cc3ccc(-c4nnc(C(F)F)o4)cn3)c3ccccc3)C2)CC1 [Compound 3112, N-((5-(5-(difluoromethyl)-1,3,4-oxadiazol-2-yl)pyridin-2-yl)methyl)-3-fluoro-N-phenyl-1-(1-propylpiperidin-4-yl)azetidine-3-carboxamide]	2,024 fold	24.7	> 50000
CCCCN1CCC(N2CC(F)(C(=O)N(Cc3ccc(-c4nnc(C(F)F)o4)cn3)c3ccccc3)C2)CC1 [Compound 3113, 1-(1-butylpiperidin-4-yl)-N-((5-(5-(difluoromethyl)-1,3,4-oxadiazol-2-yl)pyridin-2-yl)methyl)-3-fluoro-N-phenylazetidine-3-carboxamide]	1,543 fold	32.4	> 50000
CC(C)CN1CCC(N2CC(F)(C(=O)N(Cc3ccc(-c4nnc(C(F)F)o4)cn3)c3ccccc3)C2)CC1 [Compound 3114, N-((5-(5-(difluoromethyl)-1,3,4-oxadiazol-2-yl)pyridin-2-yl)methyl)-3-fluoro-1-(1-isobutylpiperidin-4-yl)-N-phenylazetidine-3-carboxamide]	1,524 fold	32.8	> 50000
CC(C)N1CCC(N2CC(F)(C(=O)N(Cc3ccc(-c4nnc(C(F)F)o4)cn3)c3ccccc3)C2)CC1 [Compound 3115, N-((5-(5-(difluoromethyl)-1,3,4-oxadiazol-2-yl)pyridin-2-yl)methyl)-3-fluoro-1-(1-isopropylpiperidin-4-yl)-N-phenylazetidine-3-carboxamide]	2,040 fold	24.5	> 50000
CC(=O)N1CC(F)(C(=O)N(Cc2ccc(-c3nnc(C(F)F)o3)cn2)c2ccccc2)C1 [Compound 3152, 1-acetyl-N-((5-(5-(difluoromethyl)-1,3,4-oxadiazol-2-yl)pyridin-2-yl)methyl)-3-fluoro-N-phenylazetidine-3-carboxamide]	1,377 fold	36.3	> 50000
CCC(=O)N1CC(F)(C(=O)N(Cc2ccc(-c3nnc(C(F)F)o3)cn2)c2ccccc2)C1 [Compound 3153, N-((5-(5-(difluoromethyl)-1,3,4-oxadiazol-2-yl)pyridin-2-yl)methyl)-3-fluoro-N-phenyl-1-propionylazetidine-3-carboxamide]	1,347 fold	37.1	> 50000
CCCC(=O)N1CC(F)(C(=O)N(Cc2ccc(-c3nnc(C(F)F)o3)cn2)c2ccccc2)C1 [Compound 3154, 1-butyryl-N-((5-(5-(difluoromethyl)-1,3,4-oxadiazol-2-yl)pyridin-2-yl)methyl)-3-fluoro-N-phenylazetidine-3-carboxamide]	1,506 fold	33.2	> 50000
CC(C)CC(=O)N1CC(F)(C(=O)N(Cc2ccc(-c3nnc(C(F)F)o3)cn2)c2ccccc2)C1 [Compound 3155, N-((5-(5-(difluoromethyl)-1,3,4-oxadiazol-2-yl)pyridin-2-yl)methyl)-3-fluoro-1-(3-methylbutanoyl)-N-phenylazetidine-3-carboxamide]	1,326 fold	37.7	> 50000
O=C(N(Cc1ccc(-c2nnc(C(F)F)o2)cn1)c1ccccc1)C1(F)CN(CC2CCCCC2)C1 [Compound 3156, 1-(cyclohexylmethyl)-N-((5-(5-(difluoromethyl)-1,3,4-oxadiazol-2-yl)pyridin-2-yl)methyl)-3-fluoro-N-phenylazetidine-3-carboxamide]	649 fold	77	> 50000
COCCC(=O)N1CC(F)(C(=O)N(Cc2ccc(-c3nnc(C(F)F)o3)cn2)c2ccccc2)C1 [Compound 3157, N-((5-(5-(difluoromethyl)-1,3,4-oxadiazol-2-yl)pyridin-2-yl)methyl)-3-fluoro-1-(3-methoxypropanoyl)-N-phenylazetidine-3-carboxamide]	941 fold	53.1	> 50000
O=C(C1CC1)N1CC(F)(C(=O)N(Cc2ccc(-c3nnc(C(F)F)o3)cn2)c2ccccc2)C1 [Compound 3158, 1-(cyclopropanecarbonyl)-N-((5-(5-(difluoromethyl)-1,3,4-oxadiazol-2-yl)pyridin-2-yl)methyl)-3-fluoro-N-phenylazetidine-3-carboxamide]	1,400 fold	35.7	> 50000
O=C(C1CCC1)N1CC(F)(C(=O)N(Cc2ccc(-c3nnc(C(F)F)o3)cn2)c2ccccc2)C1 [Compound 3159, 1-(cyclobutanecarbonyl)-N-((5-(5-(difluoromethyl)-1,3,4-oxadiazol-2-yl)pyridin-2-yl)methyl)-3-fluoro-N-phenylazetidine-3-carboxamide]	1,650 fold	30.3	> 50000
O=C(C1CCCC1)N1CC(F)(C(=O)N(Cc2ccc(-c3nnc(C(F)F)o3)cn2)c2ccccc2)C1 [Compound 3160, 1-(cyclopentanecarbonyl)-N-((5-(5-(difluoromethyl)-1,3,4-oxadiazol-2-yl)pyridin-2-yl)methyl)-3-fluoro-N-phenylazetidine-3-carboxamide]	1,466 fold	34.1	> 50000
O=C(N(Cc1ccc(-c2nnc(C(F)F)o2)cn1)c1ccccc1)C1(F)CN(C2CCSCC2)C1 [Compound 3162, N-((5-(5-(difluoromethyl)-1,3,4-oxadiazol-2-yl)pyridin-2-yl)methyl)-3-fluoro-N-phenyl-1-(tetrahydro-2H-thiopyran-4-yl)azetidine-3-carboxamide]	2,272 fold	22	> 50000
CCC(=O)N1CC(F)(C(=O)N(Cc2ccc(-c3nnc(C(F)F)o3)cn2)c2cccc(F)c2)C1 [Compound 3163, N-((5-(5-(difluoromethyl)-1,3,4-oxadiazol-2-yl)pyridin-2-yl)methyl)-3-fluoro-N-(3-fluorophenyl)-1-propionylazetidine-3-carboxamide]	2,155 fold	23.2	> 50000
CC(=O)N1CC(F)(C(=O)N(Cc2ccc(-c3nnc(C(F)F)o3)cn2)c2cccc(F)c2)C1 [Compound 3164, 1-acetyl-N-((5-(5-(difluoromethyl)-1,3,4-oxadiazol-2-yl)pyridin-2-yl)methyl)-3-fluoro-N-(3-fluorophenyl)azetidine-3-carboxamide]	2,808 fold	17.8	> 50000
CCCC(=O)N1CC(F)(C(=O)N(Cc2ccc(-c3nnc(C(F)F)o3)cn2)c2cccc(F)c2)C1 [Compound 3165, 1-butyryl-N-((5-(5-(difluoromethyl)-1,3,4-oxadiazol-2-yl)pyridin-2-yl)methyl)-3-fluoro-N-(3-fluorophenyl)azetidine-3-carboxamide]	2,066 fold	24.2	> 50000
CC(C)CC(=O)N1CC(F)(C(=O)N(Cc2ccc(-c3nnc(C(F)F)o3)cn2)c2cccc(F)c2)C1 [Compound 3166, N-((5-(5-(difluoromethyl)-1,3,4-oxadiazol-2-yl)pyridin-2-yl)methyl)-3-fluoro-N-(3-fluorophenyl)-1-(3-methylbutanoyl)azetidine-3-carboxamide]	741 fold	67.4	> 50000
O=C(C1CCC1)N1CC(F)(C(=O)N(Cc2ccc(-c3nnc(C(F)F)o3)cn2)c2cccc(F)c2)C1 [Compound 3168, 1-(cyclobutanecarbonyl)-N-((5-(5-(difluoromethyl)-1,3,4-oxadiazol-2-yl)pyridin-2-yl)methyl)-3-fluoro-N-(3-fluorophenyl)azetidine-3-carboxamide]	2,906 fold	17.2	> 50000
